The values below come from patent US8318769B2, “Substituted sulfonamide compounds” (Gruenethal GmbH, priority 2008, dated 2012).

By inhibition is commonly meant the relative decrease from the control value, in per cent.

The target of test [1] is T1, bradykinin 1 receptor (B1R) of the rat (Rattus norvegicus, UniProt P97583).
T1 construct: expressed in transfected cells
T1 sequence (P97583 1-337): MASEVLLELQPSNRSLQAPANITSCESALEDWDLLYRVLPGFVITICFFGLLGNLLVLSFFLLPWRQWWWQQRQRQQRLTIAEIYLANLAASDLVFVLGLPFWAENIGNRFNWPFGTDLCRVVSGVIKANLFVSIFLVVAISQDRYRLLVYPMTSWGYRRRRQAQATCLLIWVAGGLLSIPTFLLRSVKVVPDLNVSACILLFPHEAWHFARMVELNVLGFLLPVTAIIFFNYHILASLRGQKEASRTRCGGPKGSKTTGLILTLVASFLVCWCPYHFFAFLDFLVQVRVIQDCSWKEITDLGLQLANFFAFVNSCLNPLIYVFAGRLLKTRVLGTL
The experiment in a line: FLIPR Ca2+ assay, B1R antagonism, rat. In kind it is cell-based. To be noted: CHO K1 cells with rat B1R gene (rB1R cells), Des-Arg9-bradykinin at EC80, % inhibition compared with the maximum achievable inhibition; for inhibition at 10 µM: CHO-K1, 10 μM test substance, read-out: B1R antagonism, rat [10 μM] % inhibition; for B1R antagonism, rat [10 μM] % inhibition: 10 μM test substance. The method in brief:
(§1)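 CHO K1 cells stably expressing human or rat B1R, loaded with Fluo-4 and read in FLIPR (ex 488, em 540 nm, peak fluorescence). Test compound 10 μM preincubated 10-20 min, then EC80 agonist added (Lys-Des-Arg9-bradykinin for human, Des-Arg9-bradykinin for rat); % inhibition relative to maximum achievable inhibition.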

For test [2], the target named is T2, human bradykinin 1 receptor (B1R) (Homo sapiens, UniProt P46663).
T2 construct: expressed in transfected cells
T2 sequence (P46663 1-353): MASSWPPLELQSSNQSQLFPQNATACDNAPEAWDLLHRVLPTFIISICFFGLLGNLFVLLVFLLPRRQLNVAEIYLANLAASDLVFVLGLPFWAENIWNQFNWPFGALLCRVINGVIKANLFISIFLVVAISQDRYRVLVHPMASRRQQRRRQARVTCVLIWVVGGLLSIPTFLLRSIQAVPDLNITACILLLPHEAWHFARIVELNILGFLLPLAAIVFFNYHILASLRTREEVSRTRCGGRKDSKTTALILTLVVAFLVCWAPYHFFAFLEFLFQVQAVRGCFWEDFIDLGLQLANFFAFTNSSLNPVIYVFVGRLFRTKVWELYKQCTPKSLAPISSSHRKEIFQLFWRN
The experiment in a line: FLIPR Ca2+ assay, B1R antagonism, human. In kind it is cell-based. To be noted: 10 μM test substance, CHO K1 cells with human B1R gene (hB1R cells), Lys-Des-Arg9-bradykinin at EC80, % inhibition compared with the maximum achievable inhibition; for inhibition at 10 µM: read-out: B1R antagonism, human [10 μM] % inhibition. Put shortly:
as §1

Each structure is given as a SMILES string.

Take `CN1CCN(CCCOC2(c3cccnc3)CCN(C(=O)COCC3CCc4ccccc4N3S(=O)(=O)c3ccc(Cl)c(Cl)c3)CC2)CC1` (centres unmarked) [Example 37, 2-((1-(3,4-dichlorophenylsulfonyl)-1,2,3,4-tetrahydroquinolin-2-yl)methoxy)-1-(4-(3-(4-methylpiperazin-1-yl)propoxy)-4-(pyridin-3-yl)piperidin-1-yl)ethanone]: the inhibition at 10 µM in test [1] came to 99%; in test [2], 77%.
Turning to `COc1cc(C)c(S(=O)(=O)N2CCCC[C@H]2COCC(=O)N2CCC(OCCN3CCCC3)(c3cccnc3)C2)c(C)c1` (stereo partly drawn) [Example 50, 2-(((S)-1-(4-methoxy-2,6-dimethylphenylsulfonyl)piperidin-2-yl)methoxy)-1-(3-(pyridin-3-yl)-3-(2-(pyrrolidin-1-yl)ethoxy)pyrrolidin-1-yl)ethanone], the inhibition at 10 µM was determined as 104% in test [1] and 100% in test [2].
For `O=C(CC1CCCCN1S(=O)(=O)c1cccc(C(F)(F)F)c1)N1CCC(OCCCN2CCCCC2)(c2cccnc2)CC1` (centres unmarked) [Example 23, 1-(4-(3-(piperidin-1-yl)propoxy)-4-(pyridin-3-yl)piperidin-1-yl)-2-(1-(3-(trifluoromethyl)phenylsulfonyl)piperidin-2-yl)ethanone] the same measures were 46% and 57%.
For `Cc1cc(S(=O)(=O)N2CCCCC2CCC(=O)N2CCC(OCCN3CCCCC3)(c3cccnc3)CC2)c(C)cc1Cl` (centres unmarked) [Example 13, 3-(1-(4-chloro-2,5-dimethylphenylsulfonyl)piperidin-2-yl)-1-(4-(2-(piperidin-1-yl)ethoxy)-4-(pyridin-3-yl)piperidin-1-yl)propan-1-one], in that order: 50% and 101%.
For `COc1cc(C)c(S(=O)(=O)N2CCCCC2COCC(=O)N2CCC(OCCCN3CCN(C)CC3)(c3cccnc3)CC2)c(C)c1` (centres unmarked) [Example 33, 2-((1-(4-methoxy-2,6-dimethylphenylsulfonyl)piperidin-2-yl)methoxy)-1-(4-(3-(4-methylpiperazin-1-yl)propoxy)-4-(pyridin-3-yl)piperidin-1-yl)ethanone], in that order: 103% and 98%.
Regarding `O=C(CC1CCCCN1S(=O)(=O)c1cccc(C(F)(F)F)c1)N1CCC(OCCN2CCCC2)(c2cccnc2)CC1` (centres unmarked) [Example 22, 1-(4-(pyridin-3-yl)-4-(2-(pyrrolidin-1-yl)ethoxy)piperidin-1-yl)-2-(1-(3-(trifluoromethyl)phenylsulfonyl)piperidin-2-yl)ethanone], the inhibition at 10 µM stood at 102% in test [1] and 39% in test [2].
For the compound `COc1cc(C)c(S(=O)(=O)N2c3ccccc3OCC2COCC(=O)N2CCC(OCCN3CCCC3)(c3cccc(F)c3)CC2)c(C)c1` (centres unmarked) [Example 107, 1-[4-(3-fluorophenyl)-4-(2-pyrrolidin-1-yl-ethoxy)-piperidin-1-yl]-2-[[4-[(4-methoxy-2,6-dimethyl-phenyl)sulfonyl]-3,4-dihydro-2H-[1,4]benzoxazin-3-yl]-methoxy]-ethanone], the inhibition at 10 µM in test [1] was 97%; in test [2], 98%.
For `COc1cc(C)c(S(=O)(=O)N2c3ccccc3CCC2COCC(=O)N2CCC(OCCN3CCCC3)(c3ccncc3)CC2)c(C)c1` (centres unmarked) [Example 103, 2-[[1-[(4-methoxy-2,6-dimethyl-phenyl)sulfonyl]-1,2,3,4-tetrahydro-quinolin-2-yl]-methoxy]-1-[4-pyridin-4-yl-4-(2-pyrrolidin-1-yl-ethoxy)-piperidin-1-yl]-ethanone] the same measures were 103% and 100%.
On to `COc1cc(C)c(S(=O)(=O)N2CCCCC2COCC(=O)N2CCC(OCCN3CCCC3)(c3cccnc3)CC2)c(C)c1` (centres unmarked) [Example 82, 2-[[1-[(4-methoxy-2,6-dimethyl-phenyl)sulfonyl]-piperidin-2-yl]-methoxy]-1-[4-pyridin-3-yl-4-(2-pyrrolidin-1-yl-ethoxy)-piperidin-1-yl]-ethanone], for which the “B1R antagonism, rat [10 μM] % inhibition” value in test [1] was found to be 102%. In test [2] (10 µM), the “B1R antagonism, human [10 μM] % inhibition” value worked out at 100%.
`O=C(CC1CCCCN1S(=O)(=O)c1cccc(C(F)(F)F)c1)N1CCC(OCCN2CCCCC2)(c2cccnc2)CC1` (centres unmarked) [Example 10, 1-(4-(2-(piperidin-1-yl)ethoxy)-4-(pyridin-3-yl)piperidin-1-yl)-2-(1-(3-(trifluoromethyl)phenylsulfonyl)piperidin-2-yl)ethanone]: the inhibition at 10 µM in test [1] amounted to 44%; in test [2], 104%.
For `COc1cc(C)c(S(=O)(=O)N(CCOCC(=O)N2CCC(OCC[N+]3(C)CCCC3)(c3cccnc3)CC2)C2CC2)c(C)c1` [Example 58, N-cyclopropyl-4-methoxy-2,6-dimethyl-N-[2-[2-[4-[2-(1-methyl-pyrrolidin-1-ium-1-yl)-ethoxy]-4-pyridin-3-yl-piperidin-1-yl]-2-oxo-ethoxy]-ethyl]-benzenesulfonic acid amide iodide], in that order: 104% and 100%.
For `COc1cc(C)c(S(=O)(=O)N2CCCCC2COCCC(=O)N2CCC(OCCN3CCCC3)(c3cccnc3)CC2)c(C)c1` (centres unmarked) [Example 119, 3-[[1-[(4-methoxy-2,6-dimethyl-phenyl)sulfonyl]-piperidin-2-yl]-methoxy]-1-[4-pyridin-3-yl-4-(2-pyrrolidin-1-yl-ethoxy)-piperidin-1-yl]-propan-1-one], in that order: 102% and 100%.
Consider `O=C(COCC1CCCCN1S(=O)(=O)c1ccccc1C(F)(F)F)N1CCC(OCCN2CCCC2)(c2cccc(F)c2)CC1` (centres unmarked) [Example 118, 1-[4-(3-fluorophenyl)-4-(2-pyrrolidin-1-yl-ethoxy)-piperidin-1-yl]-2-[[1-[[2-(trifluoromethyl)-phenyl]sulfonyl]-piperidin-2-yl]-methoxy]-ethanone], for which the inhibition at 10 µM in test [1] came out at 97%; in test [2] it was 100%.
For `COc1cc(C)c(S(=O)(=O)N(C)CCOCC(=O)N2CCC(OCCN3CCCC3)(c3cccnc3)CC2)c(C)c1C` [Example 113, 4-methoxy-N,2,3,6-tetramethyl-N-[2-[2-oxo-2-[4-pyridin-3-yl-4-(2-pyrrolidin-1-yl-ethoxy)-piperidin-1-yl]-ethoxy]-ethyl]-benzenesulfonic acid amide] the same measures were 103% and 100%.
With `O=C(COCC1CCCCN1S(=O)(=O)c1ccccc1C(F)(F)F)N1CCC(OCCN2CCCC2)(c2cccnc2)CC1` (centres unmarked) [Example 117, 1-[4-pyridin-3-yl-4-(2-pyrrolidin-1-yl-ethoxy)-piperidin-1-yl]-2-[[1-[[2-(trifluoromethyl)-phenyl]sulfonyl]-piperidin-2-yl]-methoxy]-ethanone], the “B1R antagonism, rat [10 μM] % inhibition” value in test [1] (10 µM) is 103%. Further, the “B1R antagonism, human [10 μM] % inhibition” value in test [2] was found to be 100%.
`O=C(COC[C@@H]1CCCCN1S(=O)(=O)c1ccccc1C(F)(F)F)N1CCC(OCCN2CCCC2)(c2cccnc2)CC1` [Example 47, (S)-1-(4-(pyridin-3-yl)-4-(2-(pyrrolidin-1-yl)ethoxy)piperidin-1-yl)-2-((1-(2-(trifluoromethyl)phenylsulfonyl)piperidin-2-yl)methoxy)ethanone]: the inhibition at 10 µM was 101% in test [1] and 100% in test [2].
